# Source: patent publication US7696200B2, “Bicyclic sulfonamide derivatives which are L-CPT1 inhibitors” (Hoffmann-La Roche Inc., priority 2006, dated 2010)
# Molecular target: T1, L-CPT1 (human liver CPT1) (Homo sapiens, UniProt P50416)
# T1 construct: made in house; host or cells: Pichia pastoris strain X-33 (pGAPZB/pGAPZA), crude cell-free extract
# T1 sequence (P50416 1-773): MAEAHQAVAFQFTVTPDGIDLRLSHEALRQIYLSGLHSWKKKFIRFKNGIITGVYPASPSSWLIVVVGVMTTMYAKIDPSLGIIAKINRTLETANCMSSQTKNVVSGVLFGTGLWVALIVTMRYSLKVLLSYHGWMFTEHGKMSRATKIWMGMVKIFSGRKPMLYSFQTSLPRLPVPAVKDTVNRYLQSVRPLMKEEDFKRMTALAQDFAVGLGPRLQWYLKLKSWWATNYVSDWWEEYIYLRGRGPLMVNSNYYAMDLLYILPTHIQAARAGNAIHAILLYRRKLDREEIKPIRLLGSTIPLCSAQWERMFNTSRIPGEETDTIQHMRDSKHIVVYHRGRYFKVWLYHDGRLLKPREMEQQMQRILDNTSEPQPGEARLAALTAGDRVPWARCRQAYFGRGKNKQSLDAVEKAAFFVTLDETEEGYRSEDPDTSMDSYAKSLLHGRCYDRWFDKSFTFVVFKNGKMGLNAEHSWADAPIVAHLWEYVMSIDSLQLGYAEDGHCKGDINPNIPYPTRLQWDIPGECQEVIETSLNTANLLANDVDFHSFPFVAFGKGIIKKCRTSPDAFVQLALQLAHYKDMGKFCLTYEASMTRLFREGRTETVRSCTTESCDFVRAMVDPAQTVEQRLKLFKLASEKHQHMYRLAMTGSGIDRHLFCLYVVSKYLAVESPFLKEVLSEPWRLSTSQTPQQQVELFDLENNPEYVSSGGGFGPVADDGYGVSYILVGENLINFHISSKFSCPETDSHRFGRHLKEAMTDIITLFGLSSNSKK
# Assay: L-CPT1 inhibition, spectrophotometric CPT activity assay with DTNB (Ellman's reagent)
# Format: biochemical
# Details: cell-free extracts of P. pastoris expressing human liver CPT1; carnitine 500 μM, palmitoyl-CoA 80 μM, DTNB 300 μM, pH 7.4
# Procedure: The following tests were carried out in order to determine the activity of the compounds of the present invention. Background information on the performed assays can be found in: Jackson et al., 1999, Biochem. J. 341, 483-489 and Jackson et al., 2000, J. Biol. Chem. 275, 19560-19566.
# Human liver and muscle CPT1 cDNAs and rat CPT2 cDNA were subcloned in pGAPZB or pGAPZA, respectively. These plasmids were used to transform P. pastoris strain X-33 via electroporation after the preparation of electrocompetent cells. High copy number clones were selected where necessary using 0.5 or 1 mg/ml Zeocin. Cultures for activity measurements were induced for 16 h in YPD medium (1% yeast extract, 2% peptone, 2% glucose). Crude cell extracts were prepared by disrupting the cells with glass beads or French Press, depending on fermenter sizes. After centrifugation, the cell-free extracts were resuspended in cell breaking buffer (50 mM Tris, pH7.4, 100 mM KCl, 1 mM EDTA) in the presence of a protease inhibitor cocktail, before aliquoting and freezing at −20° C.
# CPT activity was measured using a spectrophotometric assay using 5,5′-dithio-bis-(2-nitrobenzoic acid) (DTNB) also called Ellman's reagent. The HS-CoA released on the formation of acylcarnitine from carnitine (500 μM) and palmitoyl-CoA (80 μM) reduced DTNB (300 μM) forming 5-mercapto-(2-nitrobenzoic acid) which absorbed at 410 nm with a molar extinction coefficient of 13600 M^−1.cm^−1. The assay buffer contained 120 mM KCl, 25 mM Tris, pH 7.4, 1 mM EDTA. This assay was used for the identification of selective inhibitors of the liver CPT1 isoform versus the muscle CPT1 and CPT2 isoforms.
row,IC50 [nM],SMILES
1,56,"COc1ccc(Cl)cc1S(=O)(=O)N1COCc2ccc(C(=O)Nc3ccc(C(=O)O)cc3)cc21 [Example 73, 4-{[1-(5-Chloro-2-methoxy-benzenesulfonyl)-1,4-dihydro-2H-benzo[d][1,3]oxazine-7-carbonyl]-amino}-benzoic acid]"
2,23,"O=C(O)Cc1csc(NC(=O)c2ccc3c(c2)N(S(=O)(=O)c2cccc(Cl)c2)CCO3)n1 [Example 92, (2-{[4-(3-Chloro-benzenesulfonyl)-3,4-dihydro-2H-benzo[1,4]oxazine-6-carbonyl]-amino}-thiazol-4-yl)-acetic acid]"

# More lines, now with the values behind:
row,SMILES,IC50 [nM]
1,"COc1ccc(Cl)cc1S(=O)(=O)N1CCOc2ccc(C(=O)Nc3ccc(C(=O)O)c(F)c3)cc21 [Example 2, 4-{[4-(5-Chloro-2-methoxy-benzenesulfonyl)-3,4-dihydro-2H-benzo[1,4]oxazine-6-carbonyl]-amino}-2-fluoro-benzoic acid]",78
2,"COc1ccc(Cl)cc1S(=O)(=O)N1CC(C(=O)O)Oc2ccc(C(=O)Nc3cccc(F)c3)cc21 (centres unmarked) [Example 113, 4-(5-Chloro-2-methoxy-benzenesulfonyl)-6-(3-fluoro-phenylcarbamoyl)-3,4-dihydro-2H-benzo[1,4]oxazine-2-carboxylic acid]",16
3,"COc1ccc(Cl)cc1S(=O)(=O)N1COc2ccc(C(=O)Nc3ccc(C(=O)O)c(F)c3)cc21 [Example 32, 4-{[3-(5-Chloro-2-methoxy-benzenesulfonyl)-2,3-dihydro-benzooxazole-5-carbonyl]-amino}-2-fluoro-benzoic acid]",140
